# Source: patent US5700769A, “Enhancement of enzyme reactions” (Novo Nordisk A/S, priority 1992, dated 1997)
# Like-named read-outs stand apart in the source and are kept apart here.
# T1: Coprinus cinereus peroxidase (CiP) (Coprinopsis cinerea, UniProt P28314)
# T1 construct: made in house
# T1 sequence (P28314 21-363): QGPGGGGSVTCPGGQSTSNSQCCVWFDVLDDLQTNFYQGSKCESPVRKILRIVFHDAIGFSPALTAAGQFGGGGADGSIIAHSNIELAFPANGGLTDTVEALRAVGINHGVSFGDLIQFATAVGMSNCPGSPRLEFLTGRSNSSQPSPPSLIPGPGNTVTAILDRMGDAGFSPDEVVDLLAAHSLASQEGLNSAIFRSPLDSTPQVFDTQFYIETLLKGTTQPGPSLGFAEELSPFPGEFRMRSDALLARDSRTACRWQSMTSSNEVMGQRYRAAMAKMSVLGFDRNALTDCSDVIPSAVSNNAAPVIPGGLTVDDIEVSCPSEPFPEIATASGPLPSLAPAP
# T2: CiP (Coprinopsis cinerea, UniProt P28314)
# T2 construct: made in house
# T2 sequence (P28314 21-363): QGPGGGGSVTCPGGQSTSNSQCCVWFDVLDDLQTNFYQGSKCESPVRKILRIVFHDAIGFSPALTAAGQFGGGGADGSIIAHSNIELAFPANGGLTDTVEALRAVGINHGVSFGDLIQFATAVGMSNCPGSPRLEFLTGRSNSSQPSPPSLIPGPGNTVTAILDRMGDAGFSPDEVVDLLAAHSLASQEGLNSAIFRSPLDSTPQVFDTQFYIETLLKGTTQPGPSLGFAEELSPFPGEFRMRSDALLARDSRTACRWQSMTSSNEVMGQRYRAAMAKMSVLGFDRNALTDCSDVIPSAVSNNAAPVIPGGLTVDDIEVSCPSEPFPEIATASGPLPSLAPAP
# Key:
# [1] = Decay of oxidized vanillin and 7-hydroxycoumarin from cyclic voltammograms (Example 7); format: physicochemical; conditions: enhancer 2 mM; comparison of experimental with simulated voltammograms
# Method: The half-life of vanillin and 7-hydroxycoumarin was determined from cyclic voltammograms of the enhancers. The cyclic voltammograms were obtained in a three-electrode system consisting of
# (§1) Working electrode Platinum disc
# (§2) Counter electrode Platinum wire
# (§3) Reference electrode Calomel
# The concentration of the enhancers was 2 mM.
# The order of the decay reaction of the oxidized enhancers was determined from the dependence of the peak position of the oxidizing peak (Epo) on the scan rate (.nu.). For both enhancers (δEpo /δlog.nu.)=0.019 V in the scan rate range 0.1-1.0 V/s showing that the decay reaction is 2nd order.
# The rate constant of the decay reaction of the oxidized enhancers was determined from a comparison of the experimental cyclic voltammograms with simulated voltammograms. The parameters needed for the simulation are the reaction order of the decay reaction, the concentration of the enhancer, the scan rate […] the rate constant for the decay reaction as described in Analytical Chemistry, Vol. 60, p. 1159, 1988.
# [2] = target: T1, Coprinus cinereus peroxidase (CiP); test: Initial bleaching of Direct Blue 1 by CiP with enhancer (Example 1); format: biochemical; conditions: 10 μM enhancer, 20 μM H2O2, 30° C., 610 nm
# Method: The initial bleaching of Direct Blue 1 (DB1) by CiP using a selection of enhancers according to the invention was compared to the half-life of the oxidized enhancer (electron acceptor) measured under standard conditions.
# Conditions for bleaching:
# 200 μl 50 mM Britton-Robinson* buffer
# pH 8.5 and 10.5, respectively
# After 5 seconds the bleaching was followed for at least 1 minute, and the initial bleaching rates (reduction in milli-absorbance units per minute, -ΔmAbs/min, determined from the initial slope of the absorbance curve) were determined.
# CiP = target: T2, CiP; test: Apparent kinetic constants for oxidation of enhancer by CiP (Example 9); format: biochemical, Coprinus cinereus; conditions: pH 8.5, 30° C.; for Kcat (app.): turnover number calculated as Vmax/[CiP]o
# Method: (§4) The apparent kinetic constants for the oxidation of some of the enhancers of the invention, 10-ethyl-4-phenothiazinecarboxylic acid (EPC) and 10-phenothiazinepropionic acid (PTP), were determined using CiP (4nM for PTP and 3.1 nM for EPC), borate buffer (10 mM) pH 8.5, H2 O2 (50 μM) and varied concentrations of enhancer, 30° C. Formation of oxidized enhancer was monitored at 514 nm.
# (§5) When Kcat (app.) is defined as the turnover number calculated as
# (§6) Vmax /[CiP]o, where [CiP]o is the initial concentration of […]
# [3] = Half-life of benzidine derivatives by cyclic voltametri (Example 8); format: physicochemical; conditions: CV in DMF/H2O buffer (1/9), 2 mM, two electron transfer
# Method: The half-life of the different benzidine derivatives was measured by cyclic voltametri (CV) in DMF/H2 O buffer (1/9) at pH 8.5 and 10.5 as described in. The concentration of the benzidines were 2 mM, and the half-life (t1/2) of the compounds is referring to a two electron transfer.
# [4] = ESR
# Method: The stability of the ABTS radical formed by oxidation of ABTS with a recombinantly produced Coprinus cinereus peroxidase (rCiP), obtained according to Example 1, was studied by electron spin resonance technique (ESR). The ESR signal was calculated after 20 scans, where the area under curve corresponds to the concentration of the radical. The signal was integrated from 3260 Gaus to 3300 Gaus.
# The stability of the radical was determined in 0.1M Britton & Robinson buffer at different pH values. A concentration of 2.27 mM H2 O2 and an enzyme concentration 34 PODU/ml was applied.
# The half-lives in Table 3 measured at different concentrations have for comparison been calculated to a concentration of 250 μM assuming a 2nd order decay.
# [5] = Half-life of oxidized enhancer from cyclic voltammogram (Example 1); format: physicochemical; conditions: pH 10.5, enhancer 8 mM
# Method: The half-life of the oxidized enhancers were determined from a cyclic voltammogram of the enhancers present at a concentration of 8 mM. The cyclic voltammograms were obtained in a standard three-electrode system consisting of
# as §1, §2, §3
# The half-life (t1/2) of the oxidized enhancers was calculated from the scan rates (.nu.), peak positions and switching potential in a cyclic voltammogram in which the peak current of the reducing peak had half the value of the peak current of the oxidizing peak. [formula] ΔE is the difference of the peak position of the reducing peak and the switching potential.
# The switching potential was fixed at a potential 0.2 V higher than the peak position of the oxidizing peak in a reversible voltammogram. A reversible voltammogram is obtained at scan rates at which the difference between the peak positions of the oxidizing and reducing peak approaches 0.059 V.
# [6] = substrate: CCN1c2ccccc2Sc2c(C(=O)O)cccc21; test: Apparent kinetic constants for oxidation of enhancer by CiP (Example 9); format: biochemical, Coprinus cinereus; conditions: other: CiP 4 nM for PTP, 3.1 nM for EPC, borate buffer 10 mM pH 8.5, 50 μM H2O2, 30° C., 514 nm
# Method: as §4, §5, §6
# [7] = substrate: O=C(O)CCN1c2ccccc2Sc2ccccc21; test: as above; format: biochemical, Coprinus cinereus; conditions: other: CiP 4 nM for PTP, 3.1 nM for EPC, borate buffer 10 mM pH 8.5, 50 μM H2O2, 30° C., 514 nm
# Method: as §4, §5, §6
molecule,measurement,setting,value
COc1cc(C=O)ccc1O [vanillin],rate constant for the decay reaction of the oxidized enhancer,[1],~10^8 M^-1 s^-1
"O=C(O)CCN1c2ccccc2Sc2ccccc21 [10-phenothiazine propionic acid, 10-phenothiazinepropionic acid]",bleaching (initial bleaching of Direct Blue 1),"[2]; pH 8.5, 2 nM CiP",486 -ΔmAbs/min
same,bleaching (initial bleaching of Direct Blue 1),"[2]; pH 10.5, 1 nM CiP",468 -ΔmAbs/min
same,1/kcat (app.),CiP,~ 1.5 ms
same,Kcat (app.),CiP,671 ± 124 s⁻¹
"Cc1cc(-c2cc(C)c(N)c(C)c2)cc(C)c1N [3,3',5,5'-tetramethyl-benzidine, 3,3',5,5'-tetramethylbenzidine]",t1/2 (half-life of oxidized enhancer),[3]; pH 8.5,4.5 s
same,t1/2 (half-life of oxidized enhancer),[3]; pH 10.5,5 s
"CCn1c(=NN=c2sc3cc(S(=O)(=O)O)ccc3n2CC)sc2cc(S(=O)(=O)O)ccc21 [ABTS, 2,2'-azino-bis (3-ethylbenzothiazoline-6-sulfonate)]",t1/2 of ABTS radical,"[4]; pH 3, initial concentration 0.45 mM, 0.1M Britton & Robinson buffer",83 h
same,t1/2 of ABTS radical,"[4]; pH 4, initial concentration 0.45 mM",66 h
same,t1/2 of ABTS radical,"[4]; pH 6, initial concentration 0.45 mM",6.75 h
same,t1/2 of ABTS radical,"[4]; pH 7, initial concentration 0.24 mM",1.4 h
same,t1/2 of ABTS radical,"[4]; pH 8.7, initial concentration 0.24 mM",0.67 h
"CCN1c2ccccc2Sc2c(C(=O)O)cccc21 [10-ethyl-4-phenothiazine-carboxylic acid, 10-ethyl-4-phenothiazinecarboxylic acid]",bleaching (initial bleaching of Direct Blue 1),"[2]; pH 8.5, 2 nM CiP",816 -ΔmAbs/min
same,bleaching (initial bleaching of Direct Blue 1),"[2]; pH 10.5, 1 nM CiP",864 -ΔmAbs/min
same,1/kcat (app.),CiP,~ 1 ms
same,Kcat (app.),CiP,997 ± 64 s⁻¹
same,t1/2 (half-life of the oxidized enhancer),[5],2.5 s
CN1c2ccccc2Sc2ccccc21 [10-methyl-phenothiazine],bleaching (initial bleaching of Direct Blue 1),"[2]; pH 8.5, 2 nM CiP",240 -ΔmAbs/min
same,bleaching (initial bleaching of Direct Blue 1),"[2]; pH 10.5, 1 nM CiP",480 -ΔmAbs/min
CC(=O)c1ccc2c(c1)N(C)c1ccccc1S2 [2-acetyl-10-methyl-phenothiazine],bleaching (initial bleaching of Direct Blue 1),"[2]; pH 8.5, 2 nM CiP",27 -ΔmAbs/min
same,bleaching (initial bleaching of Direct Blue 1),"[2]; pH 10.5, 1 nM CiP",25 -ΔmAbs/min
O=c1ccc2ccc(O)cc2o1 [7-hydroxycoumarin],rate constant for the decay reaction of the oxidized enhancer,[1],~10^8 M^-1 s^-1
COC(=O)CCN1c2ccccc2Sc2ccccc21 [methyl-10-phenothiazine-propionate],bleaching (initial bleaching of Direct Blue 1),"[2]; pH 8.5, 2 nM CiP",72 -ΔmAbs/min
same,bleaching (initial bleaching of Direct Blue 1),"[2]; pH 10.5, 1 nM CiP",99 -ΔmAbs/min
"CiP (Coprinopsis cinerea) (protein, made in house) QGPGGGGSVTCPGGQSTSNSQCCVWFDVLDDLQTNFYQGSKCESPVRKILRIVFHDAIGFSPALTAAGQFGGGGADGSIIAHSNIELAFPANGGLTDTVEALRAVGINHGVSFGDLIQFATAVGMSNCPGSPRLEFLTGRSNSSQPSPPSLIPGPGNTVTAILDRMGDAGFSPDEVVDLLAAHSLASQEGLNSAIFRSPLDSTPQVFDTQFYIETLLKGTTQPGPSLGFAEELSPFPGEFRMRSDALLARDSRTACRWQSMTSSNEVMGQRYRAAMAKMSVLGFDRNALTDCSDVIPSAVSNNAAPVIPGGLTVDDIEVSCPSEPFPEIATASGPLPSLAPAP",Km,[6],31 µM
same,Km,[7],53 µM
